In PMC9469208 (Journal of Medicinal Chemistry, 2022):

Tests used:
[1] = test system: NMDA receptors (tonic NMDA currents)
[2] = test system: maximal electroshock seizures in mice; settings: mouse, in vivo; cited from earlier work
[3] = test system: PTZ-induced seizures in mice; settings: mouse, in vivo; cited from earlier work
[4] = test system: 6 Hz (32 mA) seizures in mice; settings: mouse, in vivo; cited from earlier work

NC(CCCP(=O)(O)O)C(=O)O (centres unmarked) [AP-5]
effect on tonic NMDA currents [1]: fully inhibited

C=C(C)[C@@H]1CCC(C)=C[C@H]1c1c(O)cc(CCCCC)cc1O [CBD, cannabidiol]
ED50 (MES) [2]: 80 (65.5–96.0) mg/kg | ED50 (scPTZ) [3]: 120 (98.5–146) mg/kg

CCC1(C)CC(=O)NC1=O (centres unmarked) [ETX, ethosuximide]
ED50 (6 Hz 32 mA) [4]: >200 mg/kg | ED50 (scPTZ) [3]: 140.4 (115.8–170.2) mg/kg
